Measured values reported in US6906094B2, “1,2,4-tribsubstituted benzenes as inhibitors of 15-lipoxygenase” (Warner-Lambert Company, priority 2000, dated 2005).

COC(=O)COC(=O)NS(=O)(=O)Nc1cc(-c2cc3cc(F)c(F)cc3[nH]2)ccc1OC (hydrate or solvate) [Example 43, Acetic Acid, [[[[[[5-(5,6-difluoro-1H-indol-2-yl)-2-methoxyphenyl]amino]-sulfonyl]amino]carbonyl]oxy]-, Methyl ester]
melting point: 190 to 192 °C

COc1ccc(-c2cc3cc(F)c(F)cc3[nH]2)cc1NS(=O)(=O)NC(=O)OC(C)(C)C (hydrate or solvate) [Example 53, Carbamic Acid, [[[5-(5,6-difluoro-indol-2-yl)-2-methoxyphenyl]amino]-sulfonyl]-, 1,1-dimethylethyl ester]
melting point: 158 to 160 °C

COc1ccc(C(=O)Nc2ccc(F)c(F)c2)cc1NS(=O)(=O)NC(=O)Nc1ccc(C(C)(C)C)cc1 (hydrate or solvate) [Example 59, Benzamide, N-(3,4-difluorophenyl)-3-[[[[[[4-(1,1-dimethylethyl)phenyl]-amino]carbonyl]amino]sulfonyl]amino]-4-methoxy]
melting point: 199 to 202 °C

COc1ccc(C(=O)Nc2ccc(F)c(F)c2)cc1NS(=O)(=O)NC(=O)Nc1cccc([N+](=O)[O-])c1 (hydrate or solvate) [Example 60, Benzamide, N-(3,4-difluorophenyl)-4-methoxy-3-[[[[[(3-nitrophenyl) -amino]carbonyl]amino]sulfonyl]amino]]
melting point: 206 to 208 °C

COc1ccc(C(=O)Nc2ccc(F)c(F)c2)cc1NS(=O)(=O)NC(=O)Nc1cc(C(F)(F)F)cc(C(F)(F)F)c1 (hydrate or solvate) [Example 62, Benzamide, 3-[[[[[[3,5-bis(trifluoromethyl)phenyl]amino]-carbonyl]amino]-sulfonyl]amino]-N-(3,4-difluorophenyl)-4-methoxy]
melting point: 175 to 178 °C

COc1ccc(C(=O)Nc2ccc(F)c(F)c2)cc1NS(=O)(=O)NC(=O)OCC(C)C [Example 23, Carbamic Acid, [[(5-[[(3,4-difluorophenyl)amino]carbonyl]-2-methoxyphenyl]amino]sulfonyl]-, 2-methylpropyl ester]
melting point: 188 to 190 °C
